Where two headings read alike, the source gives them in different places.
What was measured:
[1] = test system: Normal human keratinocytes (newborn infant foreskin-derived epidermal keratinocyte); assay: Growth of normal human keratinocytes (H3-thymidine uptake); type: cell-based; details: for IC50: Homo sapiens, Keratinocyte, H3-thymidine uptake, 22 h + 2 h culture, 0.01 to 10 μM, read-out: Human keratinocyte growth inhibition IC50
Procedure: Normal human keratinocytes (purchased from Kurabo Industries, Ltd.) were inoculated on a 48-well plate (Coster Corp.) at a concentration of 4×10^4 cells/well/500 μL, and were cultured overnight at 37° C. in the presence of 5% CO2. A compound of the present invention or activated vitamin D3 (Calcitriol; Wako Pure Chemical Industries, Ltd.) was added to a final concentration of 0.01 to 10 μM, and the cells were cultured for 22 hours. H^3-thymidine (Amersham plc.) was added, and the cells were incubated for another 2 hours. Subsequently, the cells were recovered after washing, and in a liquid scintillation counter (Packard Instrument Company, Inc.), the radioactivity taken up by the cells was measured. The results are presented as a ratio of the radioactivity taken up by the cells upon drug addition, with respect to the radioactivity of the case with no drug addition (Control), which was taken as 100%. The IC50 value, which is the concentration of the drug for inhibiting the uptake of radioactivity to 50% with respect to the control, was lower in the case of any of the Compounds 1 to 8 than in the case of Calcitriol.

VCAM-1 expression = VCAM-1 expression inhibitory activity in TNFα-stimulated HUVEC; type: cell-based; details: Homo sapiens, TNFα 10 ng/mL, 4.5 hours, read-out: VCAM-1 expression inhibitory action IC50
Procedure: Human umbilical vein endothelial cells (HUVEC) (Sanko Junyaku Co., Ltd.) were suspended in EGM-2 medium (Sanko Junyaku Co., Ltd.) at a concentration of 5×10^4 cells/mL, and were inoculated on a 96-well plate (Corning Corp.) at a concentration of 1×10^4 cells/well. The cells were cultured at 37° C. in the presence of 5% CO2 for 4 days, then 100 μL of the medium was removed, and 25 μL each of the substance under test and TNFα (final concentration 10 ng/mL, PeproTech, Inc.) were added. After incubating the cells for 4.5 hours at 37° C., the medium was removed, and each well was washed once with 100 μL of Hank's Balanced Salt Solution containing 0.5% bovine serum albumin and 0.02% sodiumazide (HBSS/BSA). Subsequently, 30 μL of a blocking solution (1% whole goat serum (ICN Biomedicals, Inc.)/HBSS/BSA) was added, and the plate was left to stand for 30 minutes on the ice. After washing once with 100 μL of HBSS/BSA, 1 μg/mL of anti-human VCAM-1 antibody (Genzyme-Techne, Inc.) was added to each well in an amount of 30 μL, and the plate was incubated on the ice for 1 hour. After washing three times with HBSS/BSA (200 μL), peroxidase-labeled goat anti-mouse IgG antibody (Pierce Biotechnology, Inc.) diluted 2000-folds with HBSS/BSA was added in an amount of 30 μL/well, and was allowed to react for 1 hour. After washing 5 times with HBSS/BSA as described above, 100 μL/well of TMB substrate (Moss Inc.) was added, an enzymatic reaction was allowed to proceed for 15 to 30 minutes at 25° C., and then 1 mol/L sulfuric acid was added in an amount of 25 μL/well to stop the reaction. The absorbance at 492 nm was measured using a reference wavelength of 620 nm and using a 96-well plate spectrophotometer, Multiscan MS-UV (Labsystems, Inc.). The inhibitory rate was determined by taking the absorbance for the case of TNFα stimulation without drug addition, as 100%. In addition, the measurement was performed three times for each group.

[2] = test system: TPA-stimulated SKH1-hrBR-Hairless mouse; assay: Skin thickening in TPA-stimulated hairless mouse; type: in vivo; details: dorsal application of 50 μL after 10 nmol TPA, measured after 24 hours (FIG. 1)
Procedure: As an animal model for psoriasis, hairless mice stimulated with 12-O-tetradecanoylphorbol-13-acetate (hereinafter, referred to as TPA) were used (Sato, et al., Dermatology (1996) 192, 233-238). That is, on the dorsal side of a 7 to 8 weeks old female SKH1-hrBR-Hairless mouse (Charles River Laboratories Japan, Inc.), 10 nmol of TPA dissolved in acetone was applied, and then 50 μL of either the drug dissolved in acetone or Bonalfa (registered trademark) High (Teijin Pharma, Ltd.) was applied. After 24 hours, the thickness of the skin on the dorsal side was measured using a dial thickness gauge (Peacock G-1A, Ozaki MFG. Co., Ltd.), and the difference between the measured skin thickness and the skin thickness measured before TPA application was determined. The thickening of the skin thickness was suppressed by the application of the activated vitamin D3 preparation (Bonalfa (registered trademark) High). Also, the thickening of the skin thickness was suppressed by the application of the Compound 4.

| IC50 (VCAM-1 expression) [nM] | Structure (SMILES) | IC50 ([1]; 24 h) [nM] | IC50 [1] [nM] | Efficacy relative to Calcitriol (keratinocyte growth inhibition IC50) ([1]; compared with Calcitriol) | Thickening of the skin thickness [2] |
| --- | --- | --- | --- | --- | --- |
| 80 | COc1cc(-c2cc(CN3CCC(N(C)Cc4ccnc(-c5cc(OC)c(OC)c(OC)c5)c4)CC3)ccn2)cc(OC)c1OC [Compound 1] | 66 | – | – | – |
| 5 | COc1cc(-c2cncc(CN(c3ccc(SC)cc3)C3CCN(Cc4ccnc(-c5cc(OC)c(OC)c(OC)c5)c4)CC3)c2)cc(OC)c1OC [Compound 2] | 44 | – | – | – |
| – | COc1cc(OC)cc(N(Cc2ccnc(-c3cc(OC)c(OC)c(OC)c3)c2)C2CCN(Cc3ccnc(-c4cc(OC)c(OC)c(OC)c4)c3)CC2)c1 [Compound 3] | 49 | – | – | – |
| 20 | COc1ccc(N(Cc2ccnc(-c3cc(OC)c(OC)c(OC)c3)c2)C2CCN(Cc3ccnc(-c4cc(OC)c(OC)c(OC)c4)c3)CC2)cc1 [Compound 4] | 247 | 247 | about 8 times | suppressed |

Source: patent US20090042901A1, “AGENT FOR PREVENTION/THERAPY OF DISEASE CAUSED BY KERATINOCYTE GROWTH” (KOWA CO., LTD., priority 2005, published 2009)
